Assays:
[1] = test system: 293S cells transfected with EP2; experiment: Kidney regeneration assay: BMP-7 expression by Northern blot in EP2 293S cells; type: cell-based, human; conditions: 10^-6M, RNA at 8, 16 and 24 hours
Description: (§1) Methods: 293S and EP2 293S cells are grown in Dulbecco's Modified Egale medium (DMEM, Gibco, BRL; Gaithersburg, Md.). […] Cells are harvested and RNA is extracted at 8, 16 and 24 hours. Northern blot analysis of total […] is carried out by probing the blots with ^32P-labeled BMP-7 probe. The blots are normalized for RNA loading by hybridization with ^32P-labeled 18s ribosomal RNA probe. […] Given the known role of BMP-7 in kidney regeneration and the ability of an prostaglandin agonist to induce BMP-7 expression in 293S kidney cells in a time and receptor specific manner indicates a role for prostaglandin agonist in kidney regeneration.

wild type 293S cells = experiment: Kidney regeneration assay: BMP-7 expression by Northern blot in wild type 293S cells; type: cell-based, human; conditions: parental 293S cell line, 10^-6M, RNA at 8, 16 and 24 hours
Description: as §1

## CCCCC[C@H](O)/C=C/[C@H]1[C@H](O)CC(=O)[C@@H]1C/C=C\CCCC(=O)O [PGE2, Prostaglandin E2]
[1]
  induction of expression of BMP-7: induce the expression of BMP-7 in the EP2 293S cells in a time dependent manner
Wild type 293S cells
  induction of expression of BMP-7: generally not observed

— US6531485B2, “Prostaglandin agonists” (priority 1997, dated 2003)
